# Assays:
# winter wheat [1] = experiment: Example 11 field trial, 2- to 4-leaf stage: crop damage; assay type: in vivo, Triticum aestivum; settings: 28 days after application
# Experimental: (§1) The herbicidal efficacy of the active compounds or active compound mixtures was scored visually using the treated plots in comparison to untreated control plots. The damage and development of all above-ground parts of the plants were recorded. Scoring was carried out using a percentage scale (100% effect=all plants killed; 50% effect=50% of the plants and the green parts of the plants killed; 0% effect=no noticeable effect=like control plot. The scores of in each case 4 plots were averaged.
# (§2) If the observed activity values already exceed the formal sum of the values for the trials with the individual applications, they also exceed the expected value according to Colby which is calculated using the following formula and which is likewise considered to be an indication of synergism (cf. S. R. Colby; in Weeds 15 (1967) p. 20 to 22):
# (§3) Crop plants were grown outdoors on plots under natural outdoor conditions, and seeds or rhizome pieces of typical harmful plants were laid out or the natural weed growth was utilized. Treatment with the compositions according to the invention was carried out after the harmful plants had emerged and the crop plants were, generally, at the 2- to 4-leaf stage; in some cases (as stated), application of individual active compounds or active compound combinations was carried out pre-emergence (cf. Section 1) or post-emergence (cf. Section 2) or as a sequential treatment partly pre-emergence and/or post-emergence. After the application, for example 2, 4, 6 and 8 weeks after the application, the effect of the preparations was scored visually by comparison with untreated controls (cf. scoring in Section 1). In the field trial as well, the compositions according to the invention have synergistic herbicidal activity against a broad spectrum of economically important weed grasses and broad-leaved weeds. […] Moreover, the effects in essential phases of the scoring period were above the expected values according to Colby, also indicating synergism. In contrast, the crop plants were, as a consequence of the treatments with the herbicidal compositions, damaged only to a small degree, if at all.
# Capsella bursa-pastoris [2] = experiment: Example 11 field trial, 2- to 4-leaf stage: herbicidal effect; assay type: in vivo; settings: 28 days after application
# Experimental: as §1, §2, §3
# Matricaria chamomilla = experiment: Example 14 field trial, 2- to 4-leaf stage: herbicidal effect; assay type: in vivo; settings: 28 days after application
# Experimental: as §1, §2, §3
# summer wheat = experiment: Example 14 field trial, 2- to 4-leaf stage: crop damage; assay type: in vivo, Triticum aestivum; settings: 28 days after application
# Experimental: The damage and development of all above-ground parts of the plants were recorded.
# Crop plants were grown outdoors on plots under natural outdoor conditions, and seeds or rhizome pieces of typical harmful plants were laid out or the natural weed growth was utilized.
# winter wheat [3] = experiment: Example 15 field trial, 2- to 4-leaf stage: crop damage; assay type: in vivo, Triticum aestivum; settings: 28 days after application
# Experimental: as §1, §2, §3
# Lamium amolexicaule = experiment: Example 15 field trial, 2- to 4-leaf stage: herbicidal effect; assay type: in vivo; settings: 28 days after application
# Experimental: as §1, §2, §3
# Galium aparine = experiment: Example 10 pre-emergence application, fall: herbicidal effect; assay type: in vivo; settings: 169 days after application
# Excerpt: (§4) Seeds or rhizome pieces of monocotyledonous and dicotyledonous weed plants are placed in sandy loam soil in pots and covered with soil. The compositions, formulated in the form of concentrated aqueous solutions, wettable powders or emulsion concentrates, are then applied to the surface of the soil cover as aqueous solution, suspension or emulsion at an application rate of 600 to 800 l of water/ha (converted), in various dosages. After the treatment, the pots are placed in a greenhouse and kept under good growth conditions for the weeds. After the test plants have emerged, the damage to the plants or the negative effects on the emergence is scored visually after a test period of 3 to 4 weeks by comparison with untreated controls. As shown by the test results, the compositions according to the invention have good herbicidal pre-emergence activity against a broad spectrum of weed grasses and broad-leaved weeds.
# as §1, §2, §3
# Euphorbia heterophylla = experiment: Example 20 field trial, 3-leaf stage: herbicidal effect; assay type: in vivo; settings: 31 days after application
# Experimental: as §1, §2, §3
# Oryza sativa (rice) = experiment: Example 20 field trial, 3-leaf stage: crop damage; assay type: in vivo; settings: in vivo
# Experimental: as §1, §2, §3
# Lamium purpurea = experiment: Example 12 field trial, 2- to 4-leaf stage: herbicidal effect; assay type: in vivo; settings: 42 days after application
# Experimental: as §1, §2, §3
# winter wheat [4] = experiment: Example 12 field trial, 2- to 4-leaf stage: crop damage; assay type: in vivo, Triticum aestivum
# Experimental: as §1, §2, §3
# winter barley = experiment: Example 9 field trials, application 1-3 leaf stage broad-leaved weeds: crop damage; assay type: in vivo, Hordeum vulgare; settings: 100 g of ai/ha; 120 to 160 days after application
# Experimental: as §1, §2
# as §3, with “In contrast, the crop plants were, as a consequence of the treatments with the herbicidal compositions, damaged only to a small degree, if at all.” left out
# Capsella bursa-pastoris [5] = experiment: Example 9 field trials, application 1-3 leaf stage broad-leaved weeds: herbicidal effect; assay type: in vivo; settings: 100 g of ai/ha; 120 to 160 days after application
# Experimental: as §1, §2, §3
# Alopecurus myosuroides = experiment: as above; assay type: in vivo; settings: 100 g of ai/ha; 120 to 160 days after application
# Experimental: as §1, §2, §3
# winter wheat [6] = experiment: Example 9 field trials, application 1-3 leaf stage broad-leaved weeds: crop damage; assay type: in vivo, Triticum aestivum; settings: 100 g of ai/ha; 120 to 160 days after application
# Experimental: as §1, §2
# as §3, with “In contrast, the crop plants were, as a consequence of the treatments with the herbicidal compositions, damaged only to a small degree, if at all.” left out
# winter wheat [7] = experiment: Example 10 pre-emergence application, fall: crop damage; assay type: in vivo, Triticum aestivum; settings: 250 g of ai/ha; 169 days after application
# Excerpt: as §4, §1, §2, §3
structure (smiles),measurement,setting,value
"O=C(Nc1ccc(F)cc1F)c1cccnc1Oc1cccc(C(F)(F)F)c1 [(B3.4.2), diflufenican, reference compound]","damage, TRZAW",winter wheat [1]; 75 g of ai/ha,0%
same,"damage, TRZAW",winter wheat [1]; 150 g of ai/ha,0%
same,"herbicidal effect, CAPPBP",Capsella bursa-pastoris [2]; 75 g of ai/ha,45%
same,"herbicidal effect, CAPPBP",Capsella bursa-pastoris [2]; 150 g of ai/ha,67%
"Cc1cc(Cl)ccc1O[C@@H](C)C(=O)O [(B2.2.4), mecoprop-P]","herbicidal effect, MATCH",Matricaria chamomilla; 750 g of ai/ha,54%
same,"herbicidal effect, MATCH",Matricaria chamomilla; 1500 g of ai/ha,63%
same,"damage, TRZAS",summer wheat; 750 g of ai/ha,0%
same,"damage, TRZAS",summer wheat; 1500 g of ai/ha,0%
"N#Cc1cc(I)c(O)c(I)c1 [(B2.3.2), ioxynil]","herbicidal effect, MATCH",Matricaria chamomilla; 187 g of ai/ha,30%
same,"herbicidal effect, MATCH",Matricaria chamomilla; 375 g of ai/ha,45%
"COc1cc(OC)nc(NC(=O)NS(=O)(=O)N(C)S(C)(=O)=O)n1 [(B2.1.4), amidosulfuron, reference compound]","damage, TRZAW",winter wheat [3]; 12.5 g of ai/ha,0%
same,"damage, TRZAW",winter wheat [3]; 25 g of ai/ha,0%
same,"herbicidal effect, LAMAM",Lamium amolexicaule; 12.5 g of ai/ha,10%
same,"herbicidal effect, LAMAM",Lamium amolexicaule; 25 g of ai/ha,25%
"CCC(CC)Nc1c([N+](=O)[O-])cc(C)c(C)c1[N+](=O)[O-] [(B1.2.2), pendimethalin]","herbicidal effect, GALAP",Galium aparine; 1000 g of ai/ha,30%
"CCOc1ccccc1OS(=O)(=O)NC(=O)Nc1nc(OC)cc(OC)n1 [(B2.1.9), ethoxysulfuron, reference compound]","herbicidal effect, EPHHL",Euphorbia heterophylla; 22.5 g of ai/ha,45%
same,"herbicidal effect, EPHHL",Euphorbia heterophylla; 45 g of ai/ha,65%
same,"damage, ORYSA",Oryza sativa (rice),0%
"CCOC(=O)/C(Cl)=C/c1cc(N2C(=O)C3=C(CCCC3)C2=O)ccc1Cl [(B2.6.8), cinidon-ethyl]","herbicidal effect, LAMPU",Lamium purpurea; 25 g of ai/ha,60%
same,"herbicidal effect, LAMPU",Lamium purpurea; 50 g of ai/ha,60%
same,"damage, TRZAW",winter wheat [4]; in vivo,3%
"COc1ncc(F)c2nc(S(=O)(=O)Nc3c(F)cccc3F)nn12 [(B2.5.2), florasulam]","herbicidal effect, LAMPU",Lamium purpurea; 3.7 g of ai/ha,35%
same,"herbicidal effect, LAMPU",Lamium purpurea; 7.5 g of ai/ha,35%
same,"herbicidal effect, LAMPU",Lamium purpurea; 15 g of ai/ha,40%
same,"damage, TRZAW","winter wheat [4]; 3.7 g of ai/ha, 42 days after application",3%
same,"damage, TRZAW","winter wheat [4]; 7.5 g of ai/ha, 42 days after application",3%
same,"damage, TRZAW","winter wheat [4]; 15 g of ai/ha, 42 days after application",6%
"CC(C)(F)c1nc(N)nc(NC(CCCc2ccccc2)C2CC2)n1 (stereo not drawn) [(A2), 4-amino-6-(1-fluoro-1-methylethyl)-2-(4-phenyl-1-cyclopropylbutylamino)-1,3,5-triazine]","damage, HORVW",winter barley,0%
same,"herbicidal effect, CAPBP",Capsella bursa-pastoris [5],90%
same,"herbicidal effect, ALOMY",Alopecurus myosuroides,0%
same,"damage, TRZAW",winter wheat [6],0%
"CNC1=C(c2cccc(C(F)(F)F)c2)C(=O)C(c2ccccc2)O1 (stereo not drawn) [(B3.4.4), flurtamone]","damage, TRZAW",winter wheat [7],2%
same,"herbicidal effect, GALAP",Galium aparine; 250 g of ai/ha,50%
